Like-named read-outs stand apart in the source and are kept apart here.
Legend:
Sphaerotheca fuliginea = experiment: Sphaerotheca test (cucumber)/protective; format: in vivo; conditions: Podosphaera fuliginea, 168 h, read-out: Efficacy in %
Method: Sphaerotheca Test (Cucumber)/Protective
• Solvents: 24.5 parts by weight of acetone • 24.5 parts by weight of N,N-dimethylacetamide • Emulsifier: 1 part by weight of alkylaryl polyglycol ether
(§1) To produce a suitable preparation of active compound, 1 part by weight of active compound is mixed with the stated amounts of solvents and emulsifier, and the concentrate is diluted with water to the desired concentration.
To test for protective activity, young cucumber plants are sprayed with the preparation of active compound at the stated application rate. After the spray coating has dried on, the plants are inoculated with an aqueous spore suspension of Sphaerotheca fuliginea. The plants are then placed in a greenhouse at about 23° C. and a relative atmospheric humidity of about 70%.
(§2) Evaluation is carried out 7 days after the inoculation. 0% means an efficacy which corresponds to that of the control, whereas an efficacy of 100% means that no infection is observed.

Puccinia recondita = experiment: Puccinia test (wheat)/protective; format: in vivo; conditions: wheat plants, protective spray, application rate 500 g/ha, evaluation 10 days after inoculation
Method: Puccinia Test (Wheat)/Protective
• Solvent: 25 parts by weight of N,N-dimethylacetamide • Emulsifier: 0.6 part by weight of alkylaryl polyglycol ether
(§3) To produce a suitable preparation of active compound, 1 part by weight of active compound is mixed with the stated amounts of solvent and emulsifier, and the concentrate is diluted with water to the desired concentration.
To test for protective activity, young plants are sprayed with the preparation of active compound at the stated application rate. After the spray coating has dried on, the plants are sprayed with a conidia suspension of Puccinia recondita. The plants remain in an incubation cabin at about 20° C. and 100% relative atmospheric humidity for 48 hours.
The plants are then placed in a greenhouse at a temperature of about 20° C. and a relative atmospheric humidity of 80% to promote the development of rust pustules.
(§4) Evaluation is carried out 10 days after the inoculation. 0% means an efficacy which corresponds to that of the control, whereas an efficacy of 100% means that no infection is observed.

Venturia inaequalis = experiment: Venturia test (apple)/protective; format: in vivo; conditions: apple plants, protective spray, application rate 100 g/ha, evaluation 10 days after inoculation
Method: Venturia Test (Apple)/Protective
• Solvents: 2.5 parts by weight of acetone • 24.5 parts by weight of dimethylacetamide • Emulsifier: 1.0 part by weight of alkylaryl polyglycol ether
as §1
To test for protective activity, young plants are sprayed with the preparation of active compound at the stated application rate. After the spray coating has dried on, the plants are inoculated with an aqueous conidia suspension of the apple scab pathogen Venturia inaequalis and then remain in an incubation cabinet at about 20° C. and 100% relative atmospheric humidity for 1 day.
The plants are then placed in a greenhouse at about 21° C. and a relative atmospheric humidity of about 90%.
as §4

[1] = logP determination by HPLC on reversed-phase column (EEC directive 79/831 Annex V.A8); format: physicochemical; conditions: reversed-phase C18 HPLC column, pH 2.3, C 18 reversed-phase, 43° C., 0.1% aqueous phosphoric acid/acetonitrile gradient
Method: The logP values given in the Preparation Examples were determined in accordance with EEC directive 79/831 Annex V.A8 by HPLC (High Performance Liquid Chromatography) on a reversed-phase column (C 18). Temperature: 43° C.
Mobile phases for the determination in the acidic range: 0.1% aqueous phosphoric acid, acetonitrile; linear gradient from 10% acetonitrile to 90% acetonitrile.
Calibration was carried out using unbranched alkan-2-ones (having 3 to 16 carbon atoms) with known logP values (determination of the logP values by the retention times using linear interpolation between two successive alkanones).

Alternaria solani = experiment: Alternaria test (tomato)/protective; format: in vivo; conditions: tomato plants, protective spray, application rate 750 g/ha, evaluation 7 days after inoculation
Method: Alternaria Test (Tomato)/Protective
• Solvent: 49 parts by weight of N,N-dimethylformamide • Emulsifier: 1 part by weight of alkylaryl polyglycol ether
as §3
To test for protective activity, young tomato plants are sprayed with the preparation of active compound at the stated application rate. 1 day after the treatment, the plants are inoculated with a spore suspension of Alternaria solani. The plants then remain at 100% relative atmospheric humidity and 20° C. for 24 hours. Subsequently, the plants remain at 96% relative atmospheric humidity and a temperature of 20° C.
as §2

[2] = cucumber plants, protective spray, application rate 100 g/ha, evaluation 7 days after inoculation

SMILES	pest or weed control at 100 g/ha (Sphaerotheca fuliginea; [2]) [%]	Efficacy in % (Puccinia recondita) [%]	Efficacy in % (Venturia inaequalis) [%]	chromatographic logP [1]	pest or weed control at 100 g/ha (Sphaerotheca fuliginea) [%]	Efficacy in % (Alternaria solani) [%]
Cc1nc(C(F)F)c(C(=O)Nc2ccccc2C2CCCCC2)s1 [Example 1, N-(2-cyclohexylphenyl)-4-(difluoromethyl)-2-methyl-1,3-thiazole-5-carboxamide]	89	100	100	3.5	–	–
Cc1nc(C(F)F)c(C(=O)Nc2ccccc2C2CC3CCC2C3)s1 (stereo not shown) [Example 2, N-(2-bicyclo[2.2.1]hept-2-ylphenyl)-4-(difluoromethyl)-2-methyl-1,3-thiazole-5-carboxamide]	–	100	100	3.63	100	–
Cc1nc(C(F)F)c(C(=O)Nc2ccc(F)cc2C2CCCC2)s1 [Example 6]	88	–	99	3.24	–	–
Cc1nc(C(F)F)c(C(=O)Nc2ccccc2C2CCCCCCC2)s1 [Example 8]	93	100	100	4.06	–	–
Cc1nc(C(F)F)c(C(=O)Nc2ccc(Br)cc2C2CC3CCC2C3)s1 (stereo not shown) [Example 14]	100	–	100	4.27	–	95
Cc1nc(C(F)F)c(C(=O)Nc2ccccc2C2CCC[C@@H](C)C2)s1 (stereo partly shown) [Example 18]	100	–	100	3.88	–	100
Cc1nc(C(F)F)c(C(=O)N(C)c2ccccc2C2CC3CCC2C3)s1 (stereo not shown) [Example 19]	98	–	–	3.96	–	–
Cc1nc(C(F)F)c(C(=O)N(C)c2ccccc2C2CCCCC2)s1 [Example 20]	100	–	–	3.85	–	–
CC(=O)N(C(=O)c1sc(C)nc1C(F)F)c1ccccc1C1CC2CCC1C2 (stereo not shown) [Example 21]	98	–	96	3.95	–	100
CC(=O)N(C(=O)c1sc(C)nc1C(F)F)c1ccccc1C1CCCCC1 [Example 22]	96	93	–	3.86	–	–

Source: patent US7470793B2, “Thiazol-(bi)cycloalkyl-carboxanilides” (priority 2002, dated 2008)
